Among the data in patent publication US11753399B2, “Therapeutic compounds” (Gilead Sciences, Inc., priority 2018, dated 2023) are CC50 and inhibition values, retold here.

Read-outs that look alike come from different tables or passages of the source.

Series [1] is described as follows: Test B: Cytotoxicity Assay (same protocol as Test A, uninfected cells). It is filed as cell-based. The conditions noted are these: human, uninfected MT-4 cells, CellTiter-Glo. As to the method: MT-4 cells were next mixed with HIV-IIIb at a multiplicity of infection (m.o.i.) of 0.003 for 1 hour, after which time 35 μL of virus/cell mixture (2000 cells) was immediately added to each well containing 40 μL of diluted compound. The plates were then incubated at 37° C. for 5 days. After 5 days of incubation, 25 μl of 2× concentrated CellTiter-Glo Reagent (catalog #G7571, Promega Biosciences, Inc., Madison, Wis.) was added to each well containing MT-4 cells. Cell lysis was carried out by incubating at room temperature for 10 min and then chemiluminescence was read. […] Compound cytotoxicity and the corresponding CC50 values was determined using the same protocol as described in the antiviral assay (Test A) except that uninfected cells were used.

Series [2] deals with HIV-IIIb. The series is described as follows: Test A: Antiviral Assay in MT4 Cells. The series is classed as cell-based, HIV-1. The conditions noted are these: for inhibition at 0.01 µM: read-out: % inhibition at 0.01 μM; for inhibition at 0.2 µM: read-out: % inhibition at 0.20 μM. The method, then: MT-4 cells were next mixed with HIV-IIIb at a multiplicity of infection (m.o.i.) of 0.003 for 1 hour, after which time 35 μL of virus/cell mixture (2000 cells) was immediately added to each well containing 40 μL of diluted compound. The plates were then incubated at 37° C. for 5 days. After 5 days of incubation, 25 μl of 2× concentrated CellTiter-Glo Reagent (catalog #G7571, Promega Biosciences, Inc., Madison, Wis.) was added to each well containing MT-4 cells. Cell lysis was carried out by incubating at room temperature for 10 min and then chemiluminescence was read.

[3] abbreviates: Human immunodeficiency virus 1, MT4, 120 h, inhibition of virus-induced cell killing, from dose response curve at 0.01 μM (10 nM), MT-4 cells, HIV-IIIb, 5 days, values normalized to 100%.
[4] abbreviates: Human immunodeficiency virus 1, MT4, 120 h, inhibition of virus-induced cell killing, from dose response curve at 0.20 μM (200 nM), MT-4 cells, HIV-IIIb, 5 days, values normalized to 100%.
Setting [5] is: Human immunodeficiency virus 1, IIIB, MT4, 120 h.

Broadly, the CC50 is the concentration that lowers cell viability or growth by half. As a reminder, the inhibition is the relative decrease from the control value, in per cent. For the molecule `CC1(S(=O)(=O)Nc2nn(CC(F)F)c3c(-c4ccc(C#CC(C)(C)S(=O)(=O)C5CC5)nc4[C@H](Cc4cc(F)cc(F)c4)NC(=O)Cn4nc(C(F)F)c5c4C(F)(F)[C@@H]4C[C@H]54)ccc(Cl)c23)CC1` [Example 2F, N—((S)-1-(3-(4-chloro-1-(2,2-difluoroethyl)-3-((1-methylcyclopropane)-1-sulfonamido)-1H-indazol-7-yl)-6-(3-(cyclopropylsulfonyl)-3-methylbut-1-yn-1-yl)pyridin-2-yl)-2-(3,5-difluorophenyl)ethyl)-2-((3bS,4aR)-3-(difluoromethyl)-5,5-difluoro-3b,4,4a,5-tetrahydro-1H-cyclopropa[3,4]cyclopenta[1,2-c]pyrazol-1-yl)acetamide], the CC50 at 5 days in series [1] is above 57.1 µM. In addition, the inhibition at 0.01 µM in series [2] (setting [3]) came to 100%. Also, the inhibition at 0.2 µM in series [2] (setting [4]) was 100%.
Take `Cn1nc(Nc2nnc(C(C)(C)O)o2)c2c(Cl)ccc(-c3ccc(C#CC(C)(C)S(=O)(=O)C4CC4)nc3[C@H](Cc3cc(F)cc(F)c3)NC(=O)Cn3nc(C(F)(F)F)c4c3C(F)(F)[C@@H]3C[C@H]43)c21` [Example 3F, N—((S)-1-(3-(4-chloro-3-((5-(2-hydroxypropan-2-yl)-1,3,4-oxadiazol-2-yl)amino)-1-methyl-1H-indazol-7-yl)-6-(3-(cyclopropylsulfonyl)-3-methylbut-1-yn-1-yl)pyridin-2-yl)-2-(3,5-difluorophenyl)ethyl)-2-((3bS,4aR)-5,5-difluoro-3-(trifluoromethyl)-3b,4,4a,5-tetrahydro-1H-cyclopropa[3,4]cyclopenta[1,2-c]pyrazol-1-yl)acetamide]: the midpoint of cytotoxicity in series [1], the CC50 at 5 days, lay at 21.8 µM. Also, in series [2] (setting [3]), the inhibition at 0.01 µM was found to be 100%. Also, the inhibition at 0.2 µM in series [2] (setting [4]) came to 100%.
Regarding `Cn1nc(NS(C)(=O)=O)c2c(Cl)ccc(-c3ccc(C#CC(C)(C)S(=O)(=O)C4CC4)nc3[C@H](Cc3cc(F)cc(F)c3)NC(=O)Cn3nc(C(F)F)c4c3C(F)(F)[C@@H]3C[C@H]43)c21` [Example 4], in series [2] (setting [5]), the inhibition at 0.01 µM was 92% and the inhibition at 0.2 µM came out at 92%.
`CCS(=O)(=O)Nc1nn(C)c2c(-c3ccc(C#CC(C)(C)S(=O)(=O)C4CC4)nc3[C@H](Cc3cc(F)cc(F)c3)NC(=O)Cn3nc(C(F)F)c4c3C(F)(F)[C@@H]3C[C@H]43)ccc(Cl)c12` [Example 6] returned a CC50 at 5 days in series [1] above 57.1 µM. The inhibition at 0.01 µM in series [2] (setting [3]) worked out at 100%. In addition, the inhibition at 0.2 µM in series [2] (setting [4]) stood at 100%.
In the case of `CCS(=O)(=O)Nc1nn(C)c2c(-c3ccc(C#CC(C)(C)S(=O)(=O)C4CC4)nc3[C@H](Cc3cc(F)cc(F)c3)NC(=O)Cn3nc(C(F)(F)F)c4c3C(F)(F)[C@@H]3C[C@H]43)ccc(Cl)c12` [Example 7], the CC50 at 5 days in series [1] is above 57.1 µM. Besides, the inhibition at 0.01 µM in series [2] (setting [3]) turned out to be 94%. In series [2] (setting [4]), the inhibition at 0.2 µM was 94%.
In the case of `CC(C)(C#Cc1ccc(-c2ccc(Cl)c3c(NS(C)(=O)=O)nn(CC(F)F)c23)c([C@H](Cc2cc(F)cc(F)c2)NC(=O)Cn2nc(C(F)F)c3c2C(F)(F)[C@@H]2C[C@H]32)n1)S(=O)(=O)C1CC1` [Example 8], in series [1], the CC50 at 5 days was above 57.1 µM. In addition, the inhibition at 0.01 µM in series [2] (setting [3]) came to 94%. In series [2] (setting [4]), the inhibition at 0.2 µM stood at 94%.
In turn, `CCS(=O)(=O)Nc1nn(CC(F)F)c2c(-c3ccc(C#CC(C)(C)S(=O)(=O)C4CC4)nc3[C@H](Cc3cc(F)cc(F)c3)NC(=O)Cn3nc(C(F)F)c4c3C(F)(F)[C@@H]3C[C@H]43)ccc(Cl)c12` [Example 9] displayed a CC50 at 5 days in series [1] above 57.1 µM. In series [2] (setting [3]), the inhibition at 0.01 µM was determined as 96%. The inhibition at 0.2 µM in series [2] (setting [4]) turned out to be 96%.
`Cn1nc(Nc2nnc(C(C)(C)O)o2)c2c(Cl)ccc(-c3ccc(C#CC(C)(C)S(=O)(=O)C4CC4)nc3[C@H](Cc3cc(F)cc(F)c3)NC(=O)Cn3nc(C(F)F)c4c3C(F)(F)[C@@H]3C[C@H]43)c21` [Example 10] returned a CC50 at 5 days in series [1] of 18.5 µM. Further, in series [2] (setting [3]), the inhibition at 0.01 µM was found to be 100%. In addition, the inhibition at 0.2 µM in series [2] (setting [4]) amounted to 100%.
In turn, `CCS(=O)(=O)Nc1nn(CC(F)F)c2c(-c3ccc(C#CC(C)(C)S(=O)(=O)C4CC4)nc3[C@H](Cc3cc(F)cc(F)c3)NC(=O)Cn3nc(C(F)(F)F)c4c3C(F)(F)[C@@H]3C[C@H]43)ccc(Cl)c12` [Example 11] registered a CC50 at 5 days in series [1] above 57.1 µM. The inhibition at 0.01 µM in series [2] (setting [3]) worked out at 92%. Also, the inhibition at 0.2 µM in series [2] (setting [4]) stood at 92%.
On to `Cn1nc(NS(=O)(=O)C2CC2)c2c(Cl)ccc(-c3ccc(C#CC(C)(C)S(=O)(=O)C4CC4)nc3[C@H](Cc3cc(F)cc(F)c3)NC(=O)Cn3nc(C(F)F)c4c3C(F)(F)[C@@H]3C[C@H]43)c21` [Example 12], for which the CC50 at 5 days in series [1] is above 57.1 µM. Further, in series [2] (setting [3]), the inhibition at 0.01 µM came out at 94%. In addition, in series [2] (setting [4]), the inhibition at 0.2 µM came to 94%.
In series [1], `Cn1nc(NS(=O)(=O)C2CC2)c2c(Cl)ccc(-c3ccc(C#CC(C)(C)S(=O)(=O)C4CC4)nc3[C@H](Cc3cc(F)cc(F)c3)NC(=O)Cn3nc(C(F)(F)F)c4c3C(F)(F)[C@@H]3C[C@H]43)c21` [Example 13] returned a CC50 at 5 days above 57.1 µM. For the same molecule, in series [2] (setting [3]), the inhibition at 0.01 µM turned out to be 100%. Also, the inhibition at 0.2 µM in series [2] (setting [4]) is 100%.
With `Cn1nc(NS(=O)(=O)CC2CC2)c2c(Cl)ccc(-c3ccc(C#CC(C)(C)S(=O)(=O)C4CC4)nc3[C@H](Cc3cc(F)cc(F)c3)NC(=O)Cn3nc(C(F)F)c4c3C(F)(F)[C@@H]3C[C@H]43)c21` [Example 14], in series [1], the cytotoxic concentration (CC50) at 5 days was above 57.1 µM. Moreover, the inhibition at 0.01 µM in series [2] (setting [3]) amounted to 100%. Also, the inhibition at 0.2 µM in series [2] (setting [4]) amounted to 100%.
`Cn1nc(NS(=O)(=O)CC2CC2)c2c(Cl)ccc(-c3ccc(C#CC(C)(C)S(=O)(=O)C4CC4)nc3[C@H](Cc3cc(F)cc(F)c3)NC(=O)Cn3nc(C(F)(F)F)c4c3C(F)(F)[C@@H]3C[C@H]43)c21` [Example 15] yielded a CC50 at 5 days in series [1] above 57.1 µM. For the same molecule, the inhibition at 0.01 µM in series [2] (setting [3]) came out at 98%. In addition, the inhibition at 0.2 µM in series [2] (setting [4]) worked out at 98%.
Molecule `CC(C)(C#Cc1ccc(-c2ccc(Cl)c3c(NS(=O)(=O)C4CC4)nn(CC(F)F)c23)c([C@H](Cc2cc(F)cc(F)c2)NC(=O)Cn2nc(C(F)F)c3c2C(F)(F)[C@@H]2C[C@H]32)n1)S(=O)(=O)C1CC1` [Example 16] came in with a CC50 at 5 days in series [1] above 57.1 µM. For the same molecule, the inhibition at 0.01 µM in series [2] (setting [3]) is 98%. Further, the inhibition at 0.2 µM in series [2] (setting [4]) amounted to 98%.
Turning to `CC(C)(C#Cc1ccc(-c2ccc(Cl)c3c(NS(C)(=O)=O)nn(CC(F)(F)F)c23)c([C@H](Cc2cc(F)cc(F)c2)NC(=O)Cn2nc(C(F)F)c3c2C(F)(F)[C@@H]2C[C@H]32)n1)S(=O)(=O)C1CC1` [Example 17], the CC50 at 5 days in series [1] was above 24 µM. Moreover, the inhibition at 0.01 µM in series [2] (setting [3]) was determined as 98%. The inhibition at 0.2 µM in series [2] (setting [4]) turned out to be 98%.
On to `CC(C)(C#Cc1ccc(-c2ccc(Cl)c3c(NS(C)(=O)=O)nn(C4COC4)c23)c([C@H](Cc2cc(F)cc(F)c2)NC(=O)Cn2nc(C(F)F)c3c2C(F)(F)[C@@H]2C[C@H]32)n1)S(=O)(=O)C1CC1` [Example 18], for which the CC50 at 5 days in series [1] turned out to be 41.6 µM. Further, the inhibition at 0.01 µM in series [2] (setting [3]) is 100%. In series [2] (setting [4]), the inhibition at 0.2 µM worked out at 100%.
Molecule `CC(C)(C#Cc1ccc(-c2ccc(Cl)c3c(NS(C)(=O)=O)nn(C4COC4)c23)c([C@H](Cc2cc(F)cc(F)c2)NC(=O)Cn2nc(C(F)(F)F)c3c2C(F)(F)[C@@H]2C[C@H]32)n1)S(=O)(=O)C1CC1` [Example 19] registered a CC50 at 5 days in series [1] above 57.1 µM. Moreover, the inhibition at 0.01 µM in series [2] (setting [3]) amounted to 97%. Besides, in series [2] (setting [4]), the inhibition at 0.2 µM is 97%.
In turn, `Cn1nc(NS(=O)(=O)C2(C)CC2)c2c(Cl)ccc(-c3ccc(C#CC(C)(C)S(=O)(=O)C4CC4)nc3[C@H](Cc3cc(F)cc(F)c3)NC(=O)Cn3nc(C(F)F)c4c3C(F)(F)[C@@H]3C[C@H]43)c21` [Example 20] had a CC50 at 5 days in series [1] above 57.1 µM. Also, the inhibition at 0.01 µM in series [2] (setting [3]) is 89%. In addition, the inhibition at 0.2 µM in series [2] (setting [4]) worked out at 89%.
In series [1], `Cn1nc(NS(=O)(=O)C2(C)CC2)c2c(Cl)ccc(-c3ccc(C#CC(C)(C)S(=O)(=O)C4CC4)nc3[C@H](Cc3cc(F)cc(F)c3)NC(=O)Cn3nc(C(F)(F)F)c4c3C(F)(F)[C@@H]3C[C@H]43)c21` [Example 21] registered a CC50 at 5 days above 57.1 µM. Also, the inhibition at 0.01 µM in series [2] (setting [3]) is 100%. In addition, in series [2] (setting [4]), the inhibition at 0.2 µM was determined as 100%.
In turn, `CC1(S(=O)(=O)Nc2nn(CC(F)F)c3c(-c4ccc(C#CC(C)(C)S(=O)(=O)C5CC5)nc4[C@H](Cc4cc(F)cc(F)c4)NC(=O)Cn4nc(C(F)(F)F)c5c4C(F)(F)[C@@H]4C[C@H]54)ccc(Cl)c23)CC1` [Example 22] registered a CC50 at 5 days in series [1] above 57.1 µM. In addition, in series [2] (setting [3]), the inhibition at 0.01 µM was 94%. The inhibition at 0.2 µM in series [2] (setting [4]) is 94%.
For `CC(C)(C#Cc1ccc(-c2ccc(Cl)c3c(NS(=O)(=O)C4CC4)nn(CC(F)F)c23)c([C@H](Cc2cc(F)cc(F)c2)NC(=O)Cn2nc(C(F)(F)F)c3c2C(F)(F)[C@@H]2C[C@H]32)n1)S(=O)(=O)C1CC1` [Example 23], the CC50 at 5 days in series [1] is above 57.1 µM. Also, the inhibition at 0.01 µM in series [2] (setting [3]) amounted to 100%. Further, in series [2] (setting [4]), the inhibition at 0.2 µM stood at 100%.
